# Test results: patent US4910318A, “Tetrahydrothiopyrano(3,2-b)-indole derivatives” (Shionogi & Co., Ltd., priority 1980, dated 1990)
# Where a name gives a salt, the structure may show the parent alone.
# Assays:
# [1] = test system: spontaneous locomotion in mice; assay: Spontaneous locomotor increasing activity; assay type: in vivo; settings: for ED50: Mus musculus, 50% increase vs control, 95% confidence limits on next line, read-out: ED50 (increasing effect on spontaneous locomotion); for ED50 / % of increase of spontaneous locomotion: oral
# Method: (6) Spontaneous locomotor increasing activity
# For each group 3 mice were used. Spontaneous locomotor activity was recorded for 15 minutes by a Varimex activity meter from 15 minutes after oral administration of a test compound.
# Acetic acid writhing = assay: Analgesic activity (Acetic acid writhing method); assay type: in vivo, DS male mice; settings: Mus musculus; mice, oral, 30 min before acetic acid i.p.; writhing counted for 10 minutes; read-out: Analgesic activity ED50 (Test (2))
# Method: (2) Analgesic activity (Acetic acid writhing method)
# DS male mice (20-23 g, body weight) are treated with an intraperitoneal injection of 0.1 ml/10 g of 0.6% acetic acid 30 minutes after oral administration of a test compound. The number of writhing times for 10 minutes is counted and ED50 is calculated.
# Acute toxicity = settings: mouse, in vivo; mice, oral, mortality at the 72nd hour; read-out: Acute toxicity LD50 (Test (3))
# Method: DS mice (20-23 g, male) are orally administered a suspension of test compound with gum arabic. The mortality at the 72nd hour is determined and the LD50 is calculated.
# Carrageenin edema = assay: Anti-inflammatory activity (Carrageenin edema method); assay type: in vivo, JCl-Wistar female rats; settings: Rattus norvegicus; rats, oral, 30 min before carrageenin; swelling measured 3 hours later; read-out: Anti-inflammatory activity ED30 (Test (1))
# Method: (1) Anti-inflammatory activity (Carrageenin edema method)
# A 0.9% saline solution (0.05 ml) containing 1.0% carrageenin is used as phlogistic agent. After 30 minutes JCl-Wistar female rats (180-200 g, body weight) are orally administered a test compound, the phlogistic agent is injected subcutaneously into the plantar of the feet of the rats. The volume of swelling is measured 3 hours later and the anti-edema activity is determined by calculating a ratio (%) of the edematous volume of medicated foot to that of non-medicated foot.
# [2] = test system: spontaneous locomotion in mice; assay: Spontaneous locomotor decreasing activity; assay type: in vivo; settings: for ED50: Mus musculus, 50% decrease vs control, 95% confidence limits on a following line, read-out: ED50 (decreasing effect on spontaneous locomotion); for ED50 / % of decrease of spontaneous locomotion: mice, oral
# Excerpt: (7) Spontaneous locomotor decreasing activity
# For each group 5 mice were used.
# tetrabenazine ptosis = assay: Antidepressant activity: Anti-tetrabenazine ptosis test; assay type: in vivo, mice; settings: for ED50: Mus musculus, mice, oral, 1 hour before TBZ 50 mg/kg s.c., ptosis 1 hour after TBZ
# Method: (§1) (4) Antidepressant activity
# (4)-a Anti-tetrabenazine ptosis test
# Tetrabenazine (TBZ, 50 mg/kg s.c.) was administered to 5 mice for each group 1 hour after oral treatment with test compounds. […] (4=complete, 3=3/4, 2=1/2, 1=[…] closure of the eyelid, 0=normal).
# oxotremorine hypothermia = assay: Anti-cholinergic activity (Anti-oxotremorine hypothermia test); assay type: in vivo, mice; settings: for ED50: Mus musculus, mice, oral, 30 minutes before oxotremorine 0.5 mg/kg s.c.
# Method: (5) Anti-cholinergic activity (Anti-oxotremorine hypothermia test)
# Before each experiment the rectal temperature of the mice was recorded with a probe thermometer at a constant depth. The mice were divided into groups of 8 in such a way that the mean rectal temperature was the same in each group. Test compounds were administered orally 30 minutes before s.c. administration of oxotremorine (0.5 mg/kg).
# [3] = test system: minimal electroshock seizures with reserpine; assay: Antidepressant activity: Anti-electroshock test with reserpine; assay type: in vivo, mice; settings: for ED50: Mus musculus, po, mice, p.o., 0.5 hour before reserpine 2.5 mg/kg s.c., 12 mA, 0.2 sec, 4 hours after reserpine
# Method: as §1
# (4)-b Anti-electroshock test with reserpine
# Seizures were induced by shocking mice (10 per dose) via a pair of corneal electrodes with current intensity of 12 mA and a duration of 0.2 sec 4 hours after administration of reserpine.
# [4] = test system: bizarre behaviours of mice; assay: Hallucinogenic activity (bizarre behaviours); assay type: in vivo; settings: FIGS. 1 and 2
# Method: (8) Hallucinogenic activity
# Each of the five mice in each group was confined n a box for 15 minutes to let it adapt to its surroundings. The mouse was kept on a black disc of 74 cm in diameter for 2 minutes from 5 and 15 minutes after administration of a test compound. The number of bizarre behaviours (walking backwards, pivoting and the like) was counted.
# [5] = compared with imipramine, Table 2
Compound,ED50 (Acetic acid writhing) [mg/kg],LD50 at 72 h (Acute toxicity) [mg/kg],ED30 (Carrageenin edema) [mg/kg],ED50 (tetrabenazine ptosis) [mg/kg],ED50 (oxotremorine hypothermia) [mg/kg],ED50 [3] [mg/kg],other results
"CN[C@@H](C)Cc1ccccc1 [Methamphetamine, reference compound]",–,–,–,–,–,–,"ED50 ([1]; mice): 0.6 mg/kg; % of increase of spontaneous locomotion ([1]; mice, 0.5 mg/kg): 45.4%; % of increase of spontaneous locomotion ([1]; mice, 1 mg/kg): 62.5%; % of increase of spontaneous locomotion ([1]; mice, 2 mg/kg): 137.8%"
C=CCn1c2c(c3ccccc31)SCCC2CNC (centres unmarked) [Compound 5],11.3,700,17.5,–,–,–,–
CN(C)CCCN1c2ccccc2CCc2ccccc21 [Imipramine],–,–,–,6,4.5,102,ED50 [2]: 56 mg/kg; % of decrease of spontaneous locomotion ([2]; 25 mg/kg): 19.1%; % of decrease of spontaneous locomotion ([2]; 50 mg/kg): 56.0%; % of decrease of spontaneous locomotion ([2]; 100 mg/kg): 62.9%
"CCn1c2c(c3ccccc31)SCCC2CNC (centres unmarked) [Compound 2, 4-methylaminomethyl-5-ethyl-2,3,4,5-tetrahydrothiopyrano[3,2-b]indole]",13.3,800,9.4,–,–,–,–
CCN(CC)CCN(C)CC1CCSc2c1n(C)c1ccccc21 (centres unmarked) [Compound 6],25.3,700,13.4,–,–,–,–
"CN(C)CC1CCSc2c1n(C)c1ccccc21 (centres unmarked) [Compound 3, 4-Dimethylaminomethyl-5-methyl-2,3,4,5-tetrahydrothiopyrano[3,2-b]indole]",17.8,400,28.3,–,–,–,–
"Cc1c(N(C)C)c(=O)n(-c2ccccc2)n1C [Aminopyrine, reference compound]",58,800,24,–,–,–,–
"CNCC1CCSc2[nH]c3ccccc3c21 (centres unmarked) [Ref., 4methylaminomethyl-2,3,4,9-tetrahydro-thiopyrano [3,2b]indole HCl salt, reference compound]",4.2,330,–,> 50,> 50,8.4,hallucinogenic activity [4]: does; ED50 [2]: 43 mg/kg; effect on spontaneous locomotion (in words) ([2]; Table 4): decreases the activity; % of decrease of spontaneous locomotion ([2]; 25 mg/kg): 7.4%; % of decrease of spontaneous locomotion ([2]; 50 mg/kg): 75.3%; % of decrease of spontaneous locomotion ([2]; 100 mg/kg): 97.2%
"CNCC1CC[S+]([O-])c2c1n(C)c1ccccc21 (centres unmarked) [Compound 4, 4-Methylaminomethyl-5-methyl-2,3,4,5-tetrahydrothiopyrano[3,2-b]indole 1-oxide]",49,> 1000,–,–,–,–,–
"CNCC1CCSc2c1n(C)c1ccccc21 (centres unmarked) [Compound 1, 4-Methylaminomethyl-5-methyl-2,3,4,5-tetrahydrothiopyrano[3,2-b]indole]",6.4,400,9.4,24.4,> 50,4.3,"hallucinogenic activity [4]: no hallucinogenic activity; anti-depressant activity (in words) (tetrabenazine ptosis; [5]): strong anti-depressant activity; anti-cholinergic activity (in words) (oxotremorine hypothermia; Table 2): no anti-cholinergic acitivity; anti-depressant activity (in words) [3, 5]: strong anti-depressant activity; ED50 ([1]; mice): 5.6 mg/kg; duration of spontaneous locomotion increasing activity ([1]; continuous/successive administration): more than 24 hours; effect on spontaneous locomotion (in words) ([1]; mice, Table 3): moderately increases spontaneous locomotion; strength of locomotion increasing activity compared with methamphetamine (in words) ([1]; mice, Table 3): does not have so strong increasing activity as methamphethamine; % of increase of spontaneous locomotion ([1]; mice, 5 mg/kg): 54.3%; % of increase of spontaneous locomotion ([1]; mice, 10 mg/kg): 91.4%; % of increase of spontaneous locomotion ([1]; mice, 20 mg/kg): 123.0%"
